Test system: brain
Experiment: Maturation of TTM-001 capsid, NGS enrichment in brain of CD-1 Outbred mice
Assay type: in vivo
Conditions: NGS fold-enrichment of TTM-001 matured AAV capsid variants in the brain of CD-1 Outbred mice; intravenous 1.0×10^12 VG/dose; 14 days in life; RNA; relative to non-matured TTM-001 control
Summary of the method: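 Pooled matured TTM-001 or TTM-002 capsid libraries (loop IV region randomized by triple-codon or low-frequency point mutagenesis) dosed IV via tail vein at 1.0×10^12 VG/dose to three female CD-1 mice. Brain RNA taken after 14 days; RT-PCR and NGS gave fold enrichment versus parent TTM-001 or TTM-002 control.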

In order of falling “Fold enrichment over TTM-001” value:
1. KTINGSGSPHSKLRRQQT  6.231 fold
2. KTINGSGSPHSRGRNQQT  4.961 fold
3. KTINGSGSPHFLRQNQQT  4.777 fold
4. KTINGSGSPHVLWQNQQT  4.533 fold
5. KTINGSGSPHSKRRLQQT  4.451 fold
6. KYLSGSGSPHSKAQNQQT (peptide inserted in AAV capsid)  4.264 fold
7. KTINGSGSPHSKARRQQT  4.218 fold
8. KTINGSGSPHSKARRLQT  4.210 fold
9. KTINGSGSPHVRRQNQQT  4.114 fold
10. KTINGSGSPHSKAQLYRT  4.108 fold
11. KTINGSRSPHTRAQNQQT (peptide inserted in AAV capsid)  3.989 fold
12. KTINGSGSPHSKALRFQT  3.894 fold
13. KTINGSGSPHSKLFRQQT  3.806 fold
14. KTINGLRSPHRKAQNQQT  3.676 fold
15. KTINGKRSPHSKAQNQQT  3.611 fold
16. KTINGSGSPHSCSQNQQT  3.428 fold
17. KTINGSGSPHSLFLNQQT  3.358 fold
18. KTINGSSSPHWVAQNQQT (peptide inserted in AAV capsid)  3.277 fold
19. KTINGSGSPHSKAFPRQT  3.220 fold
20. KTINGSGSPHSKLNKQQT  3.181 fold
21. KTINGSGSPHTLYQNQQT  3.117 fold
22. KTINGSGSPHSKLRNQQT  3.112 fold
23. KTINGSGSPHLSWQNQQT  3.047 fold
24. KTINGSGSPHLWTQNQQT  3.034 fold
25. KTINGLLSPHRKAQNQQT  3.026 fold
26. KTINGSGSPHSRTRNQQT  2.912 fold
27. KTINGSGSPHSKAQTFRT  2.847 fold
28. KTINGSGSPHSKPLRQQT  2.844 fold
29. KTINGSGSPHSKILWQQT  2.838 fold
30. KTINGSGSPHSKRILQQT  2.801 fold
31. KTINGSGSPHSKAQRWLT  2.788 fold
32. KTINGSGSPHSKAQLSIT  2.784 fold
33. KTINGSGSPHSKVKPQQT  2.778 fold
34. KTINGSGSPHSKAKSRQT  2.739 fold
35. KTINGSGSPHSKIGRQQT  2.739 fold
36. KTINGLASPHRKAQNQQT  2.737 fold
37. KTINGSGSPHSKSIRQQT  2.728 fold
38. KTINGSGSPHSKRLYQQT  2.721 fold
39. KTINGKTSPHGKAQNQQT  2.717 fold
40. KTINRRLSPHSKAQNQQT  2.678 fold
41. KTINGSGSPHSHWQNQQT  2.676 fold
42. KTTHCSGSPHSKAQNQQT  2.672 fold
43. KTINGSGSPHSKQTRQQT  2.650 fold
44. KTINGSGSPHSKAQYCLT  2.628 fold
45. KTINLRFSPHSKAQNQQT  2.611 fold
46. KTINGSGSPHSKAQSWRT  2.596 fold
47. KTINGSGSPHSKCLNQQT  2.594 fold
48. KTINGSGSPHSKRTLQQT  2.583 fold
49. KTINGSGSPHLKRQNQQT  2.564 fold
50. KTINGSGSPHSKAQVKLT  2.564 fold
51. KTINGSGSPHSKLPRQQT  2.562 fold
52. KTINGSGSPHSRVRNQQT  2.540 fold
53. KTINGSGSPHSWSLNQQT  2.523 fold
54. KTINTSRSPHSKAQNQQT  2.520 fold
55. KTINGSGSPHSKATRQQT  2.505 fold
56. KTINGSGSPHSKAQWSVT  2.501 fold
57. KTINGSGSPHSKARNGQT  2.482 fold
58. KTINGSGSPHSLRYNQQT  2.462 fold
59. KTINGSGSPHSKAQVVLT  2.438 fold
60. KTINGSGSPHSKAQMVRT  2.426 fold
61. KTINGSGSPHSKVRAQQT  2.412 fold
62. KTIRLRGSPHSKAQNQQT  2.408 fold
63. KTINGSGSPHSKRNVQQT  2.404 fold
64. KTINGSGSPHTWLQNQQT  2.397 fold
65. KTINGSGSPHSKAQTTRT  2.385 fold
66. KTINGSGSPHSFARNQQT  2.367 fold
67. KTINGSGSPHSSCQNQQT  2.365 fold
68. KTINGSMSPHLYAQNQQT  2.354 fold
69. KTINGSGSPHSKRLMQQT  2.345 fold
70. KTINGSGSPHSYVRNQQT  2.339 fold
71. KTINGSGSPHSKWLVQQT  2.333 fold
72. KTINGSGSPHSKLSWQQT  2.322 fold
73. KTINGSGSPHSKLRSQQT  2.309 fold
74. KTINGSVSPHFMAQNQQT (peptide inserted in AAV capsid)  2.287 fold
75. KTINGSGSPHSKAQFTLT  2.277 fold
76. KTINGRPSPHSKAQNQQT  2.276 fold
77. KTINGRASPHVKAQNQQT  2.272 fold
78. KTINGSGSPHSSWANQQT  2.264 fold
79. KTINGSGSPHSKAQRHAT  2.264 fold
80. KTINGSGSPHALFQNQQT  2.261 fold
81. KTINGVASPHRKAQNQQT  2.261 fold
82. KTINGSGSPHSHMENQQT  2.259 fold
83. KTINGSGSPHSKSVRQQT  2.259 fold
84. KTINGSGSPHCSSQNQQT  2.253 fold
85. KTINGSGSPHSKARQQQT  2.244 fold
86. KTINGSPSPHLFAQNQQT  2.238 fold
87. KTINGSGSPHPLFQNQQT  2.233 fold
88. KTINGSGSPHSKAQRGMT  2.231 fold
89. KTINGSGSPHSKAQFRVT  2.231 fold
90. KTINGSNSPHRKAQNQQT  2.218 fold
91. KTINGSGSPHSTRQNQQT  2.212 fold
92. KTINGSVSPHYLAQNQQT (peptide inserted in AAV capsid)  2.203 fold
93. KTINGSGSPHSKRSFQQT  2.197 fold
94. KTINGSGSPHSKLWSQQT  2.190 fold
95. KTINGSASPHVFAQNQQT  2.186 fold
96. KTINGSGSPHSKAQVCLT  2.182 fold
97. KTINGSGSPHSKARGVQT  2.181 fold
98. KTINGSGSPHSKAQLRIT  2.179 fold
99. KTINGSGSPHSKRASQQT  2.173 fold
100. KTINGSGSPHSKRINQQT  2.173 fold
101. KTINGSGSPHSKAQLPWT  2.169 fold
102. KTINRVISPHSKAQNQQT  2.169 fold
103. KTINGSGSPHSKGGRQQT  2.164 fold
104. KTINGSGSPHSKAQEELT  2.162 fold
105. KTINGSRSPHSKAQNRQT (peptide inserted in AAV capsid)  2.155 fold
106. KGHEGSGSPHSKAQNQQT  2.151 fold
107. KTINGSGSPHSKPRGQQT  2.147 fold
108. KTINGYRSPHSKAQNQQT  2.140 fold
109. KTINGSGSPHWSVQNQQT  2.138 fold
110. KTINGSGSPHSKTSRQQT  2.132 fold
111. KTINGSGSPHSKNVRQQT  2.123 fold
112. KTINGSGSPHFMRQNQQT  2.123 fold
113. KTINGSGSPHSKAHRQQT  2.117 fold
114. KTINGSGSPHSKRALQQT  2.114 fold
115. KTINASGSPHSKAQGQQT  2.108 fold
116. KTINGSGSPHSKVSRQQT  2.108 fold
117. KTINGSGSPHSKLRMQQT  2.106 fold
118. KTINGSGSPHSKARLQQT  2.089 fold
119. KAFNGSGSPHSKAPNQQT  2.088 fold
120. KTINGSGSPHSKAQSHRT  2.084 fold
121. KTINGSGSPHSKIRPQQT  2.080 fold
122. KTINGTRSPHAKAQNQQT  2.071 fold
123. KTINGSGSPHSVFLNQQT  2.069 fold
124. KTINGSGSPHSKLRLQQT  2.065 fold
125. KTINGSGSPHSKLRPQQT  2.060 fold
126. KTINGSGSPHSLWQNQQT  2.037 fold
127. KTINGSGSPHSKAQLSKT  2.035 fold
128. KTINLIWSPHSKAQNQQT  2.035 fold
129. KTINGSGSPHSKVRVQQT  2.034 fold
130. KTINGSGSPHRRLQNQQT  2.030 fold
131. KTINGSGSPHSKAQVSIT  2.028 fold
132. KTINGSGSPHSKRGTQQT  2.022 fold
133. KTINGSGSPHSKNLRQQT  2.022 fold
134. KTINGSGSPHSLVFNQQT  2.019 fold
135. KTINGTSSPHCKAQNQQT  2.017 fold
136. KTINTRPSPHSKAQNQQT  2.011 fold
137. KTINGSGSPHSKAQILVT  2.009 fold
138. KTINGSGSPHSKAQNAKS  2.009 fold

Reference: patent US20260250318A1, “COMPOSITIONS AND METHODS FOR CROSSING THE BLOOD BRAIN BARRIER” (VOYAGER THERAPEUTICS, INC., priority 2022, published 2026)
